Measured values taken from the supplement of paper PMC10307832.

What was measured:
Assay in all cases: relative viability (nuclei count vs DMSO), 5 days (fraction); higher = more cells survive
Everolimus + Dasatinib = compound: CO[C@H]1C[C@@H]2CC[C@@H](C)[C@@](O)(O2)C(=O)C(=O)N2CCCC[C@H]2C(=O)O[C@H]([C@H](C)C[C@@H]2CC[C@@H](OCCO)[C@H](OC)C2)CC(=O)[C@H](C)/C=C(\C)[C@@H](O)[C@@H](OC)C(=O)[C@H](C)C[C@H](C)/C=C/C=C/C=C/1C [Everolimus] + Cc1nc(Nc2ncc(C(=O)Nc3c(C)cccc3Cl)s2)cc(N2CCN(CCO)CC2)n1 [Dasatinib] (partner 0.075 µM)
Procedure, shortened: (§1)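 Nuclei were stained with Hoechst during a one-step fixation (final 0.05% Triton X-100, 1% formaldehyde, 1 ug/ml Hoechst) carried out 5 days after dosing, then counted on 4× images. The cells, lung cancer lines in 1536-well plates, had been dosed by pin tool the day after seeding with one drug alone or a fixed anchor-drug dose plus five library-drug doses (not always all listed) in √10 steps. Relative viability is the nuclei count in treated wells divided by that in vehicle wells, and each value is the median of duplicate plates.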

Everolimus + Palbociclib = compound: CO[C@H]1C[C@@H]2CC[C@@H](C)[C@@](O)(O2)C(=O)C(=O)N2CCCC[C@H]2C(=O)O[C@H]([C@H](C)C[C@@H]2CC[C@@H](OCCO)[C@H](OC)C2)CC(=O)[C@H](C)/C=C(\C)[C@@H](O)[C@@H](OC)C(=O)[C@H](C)C[C@H](C)/C=C/C=C/C=C/1C [Everolimus] + CC(=O)c1c(C)c2cnc(Nc3ccc(N4CCNCC4)cn3)nc2n(C2CCCC2)c1=O [Palbociclib] (partner 0.5 µM)
Procedure, shortened: as §1

Everolimus + Bortezomib = compound: CO[C@H]1C[C@@H]2CC[C@@H](C)[C@@](O)(O2)C(=O)C(=O)N2CCCC[C@H]2C(=O)O[C@H]([C@H](C)C[C@@H]2CC[C@@H](OCCO)[C@H](OC)C2)CC(=O)[C@H](C)/C=C(\C)[C@@H](O)[C@@H](OC)C(=O)[C@H](C)C[C@H](C)/C=C/C=C/C=C/1C [Everolimus] + CC(C)C[C@H](NC(=O)[C@H](Cc1ccccc1)NC(=O)c1cnccn1)B(O)O [Bortezomib] (partner 0.002 µM)
Procedure, shortened: as §1

Everolimus + Luminespib = compound: CO[C@H]1C[C@@H]2CC[C@@H](C)[C@@](O)(O2)C(=O)C(=O)N2CCCC[C@H]2C(=O)O[C@H]([C@H](C)C[C@@H]2CC[C@@H](OCCO)[C@H](OC)C2)CC(=O)[C@H](C)/C=C(\C)[C@@H](O)[C@@H](OC)C(=O)[C@H](C)C[C@H](C)/C=C/C=C/C=C/1C [Everolimus] + CCNC(=O)c1noc(-c2cc(C(C)C)c(O)cc2O)c1-c1ccc(CN2CCOCC2)cc1 [Luminespib] (partner 0.01 µM)
Procedure, shortened: as §1

Cell Line | relative viability (Everolimus + Dasatinib; first compound 0.01 µM) | relative viability (Everolimus + Dasatinib; first compound 0.03162 µM) | relative viability (Everolimus + Dasatinib; first compound 0.1 µM) | relative viability (Everolimus + Dasatinib; first compound 0.3162 µM) | relative viability (Everolimus + Dasatinib; first compound 1 µM) | relative viability (Everolimus + Palbociclib; first compound 0.01 µM) | relative viability (Everolimus + Palbociclib; first compound 0.03162 µM) | relative viability (Everolimus + Palbociclib; first compound 0.1 µM) | relative viability (Everolimus + Palbociclib; first compound 0.3162 µM) | relative viability (Everolimus + Palbociclib; first compound 1 µM) | relative viability (Everolimus + Bortezomib; first compound 0.01 µM) | relative viability (Everolimus + Bortezomib; first compound 0.03162 µM) | relative viability (Everolimus + Bortezomib; first compound 0.1 µM) | relative viability (Everolimus + Bortezomib; first compound 0.3162 µM) | relative viability (Everolimus + Bortezomib; first compound 1 µM) | relative viability (Everolimus + Luminespib; first compound 0.01 µM) | relative viability (Everolimus + Luminespib; first compound 0.03162 µM) | relative viability (Everolimus + Luminespib; first compound 0.1 µM) | relative viability (Everolimus + Luminespib; first compound 0.3162 µM) | relative viability (Everolimus + Luminespib; first compound 1 µM)
H3255 | 0.35 | 0.266 | 0.332 | 0.239 | 0.335 | 0.314 | 0.294 | 0.319 | 0.322 | 0.307 | 0.518 | 0.458 | 0.359 | 0.394 | 0.44 | 0.594 | 0.584 | 0.479 | 0.504 | 0.498
NCI-H1734 | 0.276 | 0.301 | 0.265 | 0.266 | 0.316 | 0.285 | 0.241 | 0.288 | 0.251 | 0.258 | 0.529 | 0.624 | 0.497 | 0.515 | 0.546 | 0.176 | 0.211 | 0.185 | 0.184 | 0.208
NCI-H2228 | 0.335 | 0.394 | 0.246 | 0.271 | 0.253 | 0.597 | 0.403 | 0.337 | 0.408 | 0.339 | 0.705 | 0.7 | 0.645 | 0.515 | 0.614 | 0.114 | 0.185 | 0.145 | 0.131 | 0.115
ABC-1 | – | 0.393 | 0.413 | 0.455 | 0.513 | 0.468 | – | 0.43 | – | 0.598 | 0.272 | 0.3 | 0.304 | 0.285 | 0.293 | – | 0.342 | 0.316 | 0.371 | 0.355
COR-L23 | 0.429 | 0.498 | 0.432 | 0.497 | 0.485 | 0.224 | 0.27 | 0.233 | 0.271 | 0.218 | 0.788 | 0.963 | 0.635 | 0.683 | 0.864 | 0.417 | 0.377 | 0.461 | 0.431 | 0.268
NCI-H661 | 0.694 | 0.56 | 0.575 | 0.615 | 0.472 | 0.334 | 0.321 | 0.328 | 0.31 | 0.295 | 0.592 | 0.572 | 0.518 | 0.421 | 0.386 | 0.821 | 0.767 | 0.659 | 0.688 | 0.534
NCI-H1993 | 0.434 | 0.449 | 0.341 | 0.409 | 0.452 | 0.495 | 0.436 | 0.489 | 0.493 | 0.408 | 0.571 | 0.521 | 0.598 | 0.567 | 0.64 | 0.528 | 0.459 | 0.366 | 0.456 | 0.58
NCI-H1437 | 0.243 | 0.267 | 0.21 | 0.209 | 0.317 | 0.319 | 0.313 | 0.253 | 0.239 | 0.248 | 0.443 | 0.505 | 0.342 | 0.302 | 0.413 | 1.12 | 1.11 | 1.08 | 1.06 | 0.948
UMC-11 | 0.307 | 0.293 | 0.326 | 0.319 | 0.302 | 0.261 | 0.262 | 0.282 | 0.3 | 0.272 | 0.325 | 0.34 | 0.301 | 0.356 | 0.362 | 0.328 | 0.348 | 0.385 | 0.343 | 0.366
201T | 0.592 | 0.595 | 0.521 | 0.547 | 0.519 | 0.322 | 0.306 | 0.274 | 0.306 | 0.231 | 1.01 | 1.01 | 0.956 | 0.927 | 0.953 | 0.85 | 0.816 | 0.838 | 0.823 | 0.874
ChaGo-K-1 | 0.523 | 0.565 | 0.532 | 0.521 | 0.61 | 0.798 | 0.806 | 0.802 | 0.768 | 0.914 | 0.992 | 0.909 | 0.993 | 0.955 | 1.01 | 0.455 | 0.396 | 0.54 | 0.432 | 0.399
NCI-H1650 | 0.288 | 0.225 | 0.263 | 0.315 | 0.295 | 0.305 | 0.293 | 0.304 | 0.278 | 0.238 | 0.196 | 0.186 | 0.179 | 0.243 | 0.199 | 0.167 | 0.207 | 0.184 | 0.208 | 0.19
LOU-NH91 | 0.486 | 0.467 | 0.476 | 0.434 | 0.449 | 0.533 | 0.561 | 0.55 | 0.54 | 0.547 | 0.504 | 0.521 | 0.488 | 0.521 | 0.518 | 0.284 | 0.307 | 0.317 | 0.321 | 0.314
HOP-62 | 0.394 | 0.424 | 0.352 | 0.382 | 0.387 | 0.418 | 0.304 | 0.268 | 0.294 | 0.268 | 0.493 | 0.662 | 0.399 | 0.489 | 0.574 | 0.918 | 0.853 | 0.782 | 0.919 | 0.926
NCI-H1915 | 0.285 | 0.231 | 0.208 | 0.247 | 0.206 | 0.398 | 0.347 | 0.316 | 0.378 | 0.334 | 0.917 | 0.864 | 0.977 | 0.79 | 0.882 | 0.722 | 0.714 | 0.478 | 0.532 | 0.579
NCI-H3122 | 0.584 | 0.0535 | 0.0826 | 0.0717 | 0.112 | 0.166 | 0.178 | 0.169 | 0.17 | 0.133 | 1.05 | 1.16 | 1.06 | 1.08 | 1.01 | 0.105 | 0.0862 | 0.0973 | 0.113 | 0.0788
NCI-H1651 | 0.297 | 0.335 | 0.259 | 0.24 | 0.405 | 0.474 | 0.405 | 0.363 | 0.351 | 0.341 | 0.766 | 0.66 | 0.8 | 0.731 | 0.564 | 0.589 | 0.531 | 0.612 | 0.575 | 0.567
NCI-H838 | 0.262 | 0.243 | 0.265 | 0.274 | 0.333 | 0.144 | 0.146 | 0.159 | 0.174 | 0.123 | 0.42 | 0.48 | 0.377 | 0.41 | 0.597 | 0.206 | 0.153 | 0.198 | 0.172 | 0.266
SK-LU-1 | 0.16 | 0.166 | 0.177 | 0.176 | 0.188 | 0.444 | 0.342 | 0.303 | 0.318 | 0.298 | 0.674 | 0.742 | 0.909 | 0.618 | 0.769 | 0.183 | 0.147 | 0.174 | 0.164 | 0.168
NCI-H441 | 0.55 | 0.501 | 0.431 | 0.504 | 0.47 | 0.204 | 0.188 | 0.153 | 0.222 | 0.207 | 0.364 | 0.497 | 0.504 | 0.457 | 0.506 | 0.272 | 0.267 | 0.223 | 0.271 | 0.234
NCI-H650 | 0.363 | – | 0.357 | 0.361 | 0.307 | 0.368 | 0.262 | 0.279 | 0.278 | 0.248 | 0.649 | – | 0.556 | 0.571 | 0.458 | 0.858 | – | 0.511 | 0.609 | 0.345
NCI-H1792 | 0.732 | 0.435 | 0.562 | 0.518 | 0.484 | 0.776 | 0.518 | 0.448 | 0.464 | 0.376 | 0.819 | 0.705 | 0.657 | 0.572 | 0.538 | 0.295 | 0.24 | 0.21 | 0.229 | 0.217
NCI-H1355 | 0.436 | 0.402 | 0.315 | 0.334 | 0.316 | 0.229 | 0.233 | 0.207 | 0.213 | 0.21 | 0.611 | 0.567 | 0.593 | 0.592 | 0.564 | 0.302 | 0.33 | 0.268 | 0.258 | 0.265
SW 1573 | 0.259 | 0.353 | 0.207 | 0.244 | 0.215 | 0.237 | 0.201 | 0.175 | 0.224 | 0.225 | 0.707 | 0.512 | 0.602 | 0.491 | 0.636 | 0.172 | 0.181 | 0.359 | 0.215 | 0.216
NCI-H2347 | 0.242 | 0.285 | 0.188 | 0.293 | 0.189 | 0.386 | 0.403 | 0.401 | 0.424 | 0.373 | 0.749 | 0.658 | 0.752 | 0.602 | 0.528 | 0.497 | 0.367 | 0.301 | 0.332 | 0.362
LCLC-97TM1 | 0.929 | 0.851 | 0.932 | 0.836 | 0.917 | 0.225 | 0.217 | 0.159 | 0.164 | 0.173 | 0.607 | 0.489 | 0.525 | 0.246 | 0.495 | 0.76 | 0.743 | 0.549 | 0.581 | 0.769
EMC-BAC-2 | 0.24 | 0.242 | 0.189 | 0.219 | 0.278 | 0.414 | 0.376 | 0.346 | 0.357 | 0.324 | 0.731 | 0.69 | 0.645 | 0.588 | 0.616 | 0.789 | 0.714 | 0.689 | 0.735 | 0.613
